From patent US10266497B2 (ABIDE THERAPEUTICS, INC., priority 2017, dated 2019) come the findings set out here.

SMILES strings stand for the structures.

The target of assay [1] is T1, FAAH (Mus musculus, UniProt O08914).
T1 sequence (O08914 1-579): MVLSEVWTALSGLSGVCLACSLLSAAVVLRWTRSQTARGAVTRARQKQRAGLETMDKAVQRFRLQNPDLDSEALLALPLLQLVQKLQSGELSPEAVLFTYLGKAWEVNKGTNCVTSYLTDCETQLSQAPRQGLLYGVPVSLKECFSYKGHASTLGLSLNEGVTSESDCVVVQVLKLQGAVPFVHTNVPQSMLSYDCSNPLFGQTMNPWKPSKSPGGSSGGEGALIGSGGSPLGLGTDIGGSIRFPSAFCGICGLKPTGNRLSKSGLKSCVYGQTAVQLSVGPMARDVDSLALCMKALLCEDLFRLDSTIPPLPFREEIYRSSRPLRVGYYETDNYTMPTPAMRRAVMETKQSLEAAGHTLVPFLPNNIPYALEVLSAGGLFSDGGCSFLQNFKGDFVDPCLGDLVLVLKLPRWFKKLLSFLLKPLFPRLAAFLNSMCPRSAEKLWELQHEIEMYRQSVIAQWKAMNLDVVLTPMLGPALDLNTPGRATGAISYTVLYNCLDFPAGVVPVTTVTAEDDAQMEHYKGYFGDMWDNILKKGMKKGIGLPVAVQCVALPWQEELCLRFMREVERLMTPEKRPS
Nature of the assay: In vitro competitive activity-based protein profiling, FAAH, mouse. The following applies: read-out: FAAH % inh. 1 μM (mouse).

Assay [2] addresses T2, MAGL (Mus musculus, UniProt O35678).
T2 sequence (O35678 1-303): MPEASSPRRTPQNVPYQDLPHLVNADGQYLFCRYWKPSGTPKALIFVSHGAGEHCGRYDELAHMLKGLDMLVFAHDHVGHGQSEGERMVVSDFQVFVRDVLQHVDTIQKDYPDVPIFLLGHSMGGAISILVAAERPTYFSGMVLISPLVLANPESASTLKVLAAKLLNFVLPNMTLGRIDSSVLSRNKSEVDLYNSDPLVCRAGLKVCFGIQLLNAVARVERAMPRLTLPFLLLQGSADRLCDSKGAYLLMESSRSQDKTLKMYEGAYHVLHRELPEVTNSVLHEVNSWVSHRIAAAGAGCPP
Briefly: In vitro competitive activity-based protein profiling, MAGL, mouse. The settings on record: read-out: MAGL % inh. 1 μM (mouse).

Assay [3] deals with T3, FAAH (Homo sapiens, UniProt O00519).
T3 sequence (O00519 1-579): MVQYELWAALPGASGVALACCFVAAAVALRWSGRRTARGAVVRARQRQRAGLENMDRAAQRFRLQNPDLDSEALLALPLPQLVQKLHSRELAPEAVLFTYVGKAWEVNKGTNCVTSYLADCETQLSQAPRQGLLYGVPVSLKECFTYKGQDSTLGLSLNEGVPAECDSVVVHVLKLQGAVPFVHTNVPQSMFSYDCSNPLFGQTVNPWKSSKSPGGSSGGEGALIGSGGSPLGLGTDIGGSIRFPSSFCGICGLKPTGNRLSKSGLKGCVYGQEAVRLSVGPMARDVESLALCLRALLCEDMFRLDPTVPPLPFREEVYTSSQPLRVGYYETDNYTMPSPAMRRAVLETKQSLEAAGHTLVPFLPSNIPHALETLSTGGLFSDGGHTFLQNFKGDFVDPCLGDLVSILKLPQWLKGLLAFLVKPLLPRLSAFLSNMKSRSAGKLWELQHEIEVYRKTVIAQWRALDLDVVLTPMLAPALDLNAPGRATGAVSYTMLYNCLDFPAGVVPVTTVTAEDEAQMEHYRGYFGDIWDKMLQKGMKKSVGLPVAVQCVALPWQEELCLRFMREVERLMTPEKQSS
Briefly: In vitro competitive activity-based protein profiling, FAAH, human. The settings on record: for inhibition at 1 µM: read-out: FAAH % inh. 1 μM (human).
Experimental: Biological Evaluation In Vitro Competitive Activity-Based Protein Profiling.
Proteomes (mouse brain membrane fraction for mouse assays; human prefrontal cortex membrane fractions for human assays) (50 mL, 1.0 mg/mL total protein concentration) were preincubated with varying concentrations of inhibitors at 37° C. After 30 min, FP-Rh (1.0 mL, 50 mM in DMSO) was added and the mixture was incubated for another 30 min at 37° C. Reactions were quenched with SDS loading buffer (15 μL—4λ) and run on SDS-PAGE.

For assay [4], the target named is T4, MAGL (Homo sapiens, UniProt Q99685).
T4 sequence (Q99685 1-303): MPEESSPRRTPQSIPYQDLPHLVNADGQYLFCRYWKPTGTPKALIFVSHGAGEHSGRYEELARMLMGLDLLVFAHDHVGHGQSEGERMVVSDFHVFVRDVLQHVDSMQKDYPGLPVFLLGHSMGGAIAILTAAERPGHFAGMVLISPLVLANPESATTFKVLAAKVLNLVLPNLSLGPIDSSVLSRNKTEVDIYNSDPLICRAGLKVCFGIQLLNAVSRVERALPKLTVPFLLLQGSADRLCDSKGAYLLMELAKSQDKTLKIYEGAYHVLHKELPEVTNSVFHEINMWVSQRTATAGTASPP
Briefly: In vitro competitive activity-based protein profiling, MAGL, human. The following applies: read-out: MAGL % inh. 1 μM (human).

In the case of `NC(=O)c1ccn(C(=O)N2CC3CN(Cc4cccc(C(F)(F)F)c4)CC3C2)n1` (centres unmarked) [Example 208, 1-(5-(3-(trifluoromethyl)benzyl)octahydro-pyrrolo[3,4-c]pyrrole-2-carbonyl)-1H-pyrazole-3-carboxamide], the inhibition at 1 µM at FAAH [1] and on MAGL [2] was above 75% each time.

`NC(=O)c1ccn(C(=O)N2CC3CN(Cc4cc(Cl)cc(C(F)(F)F)c4)CC3C2)n1` (centres unmarked) [Example 201, 1-(5-(3-chloro-5-(trifluoromethyl)benzyl)octahydro-pyrrolo[3,4-c]pyrrole-2-carbonyl)-1H-pyrazole-3-carboxamide]: the inhibition at 1 µM at FAAH [1] and on MAGL [2] was above 75% in each case.

Turning to `CN(Cc1ccccc1C(F)(F)F)[C@@H]1C[C@@H]2CN(C(=O)n3ccc(C(N)=O)n3)C[C@@H]2C1` [Example 204, 1-(cis-5-(methyl(2-(trifluoromethyl)benzyl)amino)octa-hydrocyclopenta[c]pyrrole-2-carbonyl)-1H-pyrazole-3-carboxamide], the inhibition at 1 µM at FAAH [1] and at MAGL [2] was above 75% in each case.

In the case of `O=C(O)c1ccn(C(=O)N2CCC3(CCCN3Cc3ccc(Cl)cc3N3CCCC3)CC2)n1` [Example 180, 1-(1-(4-chloro-2-(pyrrolidin-1-yl)benzyl)-1,8-diazaspiro[4.5]decane-8-carbonyl)-1H-pyrazole-3-carboxylic acid], the figures for the inhibition at 1 µM at FAAH [3] and on MAGL [4] were 0 to 25% and above 75%, respectively.

In the case of `CN(Cc1ccc(C(F)(F)F)cc1)[C@@H]1C[C@@H]2CN(C(=O)n3ccc(C(N)=O)n3)C[C@@H]2C1` [Example 205, 1-(cis-5-(methyl(4-(trifluoromethyl)benzyl)amino)octa-hydrocyclopenta[c]pyrrole-2-carbonyl)-1H-pyrazole-3-carboxamide], the inhibition at 1 µM on FAAH [1] and on MAGL [2] was above 75% in each case.

For the compound `NC(=O)c1ccn(C(=O)N2CC3CN(Cc4ccc(N5CCOCC5)cc4C(F)(F)F)CC3C2)n1` (centres unmarked) [Example 17, 1-(5-(4-Morpholino-2-(trifluoromethyl)benzyl)octahydropyrrolo[3,4-c]pyrrole-2-carbonyl)-1H-pyrazole-3-carboxamide], the inhibition at 1 µM at FAAH [1] and at MAGL [2] was above 75% in each case.

Take `NC(=O)c1ccn(C(=O)N2CC3CN(Cc4cc(Cl)ccc4Cl)CC3C2)n1` (centres unmarked) [Example 202, 1-(5-(2,5-dichlorobenzyl)octa-hydropyrrolo[3,4-c]pyrrole-2-carbonyl)-1H-pyrazole-3-carboxamide]: the inhibition at 1 µM on FAAH [1] and at MAGL [2] was above 75% throughout.

Consider `O=C(O)c1ccn(C(=O)N2CCC3(CCN(Cc4ccc(-c5ccccc5)cc4C(F)(F)F)C3)CC2)n1` [Example 170, 1-(2-((3-(trifluoromethyl)-[1,1′-biphenyl]-4-yl)methyl)-2,8-diazaspiro[4.5]decane-8-carbonyl)-1H-pyrazole-3-carboxylic acid], for which, on FAAH [3], the IC50 (in general, the concentration needed to halve the response being measured) lay in the range of 100 to 1000 nM and the inhibition at 1 µM was above 75%. The inhibition at 1 µM on MAGL [4] is above 75%.

On to `O=C(O)c1ccn(C(=O)N2CCC(Oc3cccc(Cl)c3N3CCCC3)CC2)n1` [Example 13, 1-(4-(3-Chloro-2-(pyrrolidin-1-yl)phenoxy)piperidine-1-carbonyl)-1H-pyrazole-3-carboxylic Acid], for which the inhibition at 1 µM on FAAH [1] is 0 to 25%; on MAGL [2] it was above 75%.

For the compound `O=C(O)c1ccn(C(=O)N2CC3CN(Cc4ccc(Cl)cc4)CC3C2)n1` (centres unmarked) [Example 183, 1-(5-(4-chlorobenzyl)octa-hydropyrrolo[3,4-c]pyrrole-2-carbonyl)-1H-pyrazole-3-carboxylic acid], the inhibition at 1 µM at FAAH [1] and on MAGL [2] was 25 to 50% each time.

Turning to `O=C(O)c1ccn(C(=O)N2CC3CN(Cc4ccc(C(F)(F)F)cc4)CC3C2)n1` (centres unmarked) [Example 96, 1-(5-(4-(trifluoromethyl)benzyl)octahydro-pyrrolo[3,4-c]pyrrole-2-carbonyl)-1H-pyrazole-3-carboxylic acid], the values for the inhibition at 1 µM on FAAH [1] and at MAGL [2] were 25 to 50% and above 75%, respectively.

For `NC(=O)c1ccn(C(=O)N2CCC3(CCN(Cc4cc(Cl)cc(C(F)(F)F)c4)C3)CC2)n1` [Example 196, 1-(2-(3-chloro-5-(trifluoromethyl)benzyl)-2,8-diazaspiro[4.5]decane-8-carbonyl)-1H-pyrazole-3-carboxamide], the inhibition at 1 µM at FAAH [3] and on MAGL [4] was above 75% each time.

With `NC(=O)c1ccn(C(=O)N2CCN(Cc3cccc(-c4cncnc4)c3)CC2)n1` [Example 179, 1-(4-(3-(pyrimidin-5-yl)benzyl)piperazine-1-carbonyl)-1H-pyrazole-3-carboxamide], the inhibition at 1 µM on FAAH [3] is 50 to 75%; on MAGL [4], above 75%.

For `NC(=O)c1ccn(C(=O)N2CCN(Cc3cccc(Oc4ccccc4)c3)CC2)n1` [Example 198, 1-(4-(3-phenoxybenzyl)pi-perazine-1-carbonyl)-1H-pyrazole-3-carboxamide], the inhibition at 1 µM at FAAH [1] and at MAGL [2] was above 75% throughout.

Regarding `CN(Cc1ccccc1Cl)[C@H]1C[C@@H]2CN(C(=O)n3ccc(C(N)=O)n3)C[C@@H]2C1` [Example 200, 1-(trans-5-((2-chlorobenzyl) (methyl)amino)octa-hydrocyclopenta[c]pyrrole-2-carbonyl)-1H-pyrazole-3-carboxamide], the inhibition at 1 µM on FAAH [1] and on MAGL [2] was above 75% each time.

Turning to `NC(=O)c1ccn(C(=O)N2CCC3(CCN(Cc4cc(F)cc(Cl)c4)C3)CC2)n1` [Example 178, 1-(2-(3-chloro-5-fluorobenzyl)-2,8-diazaspiro[4.5]decane-8-carbonyl)-1H-pyrazole-3-carboxamide], the inhibition at 1 µM at FAAH [3] and on MAGL [4] was above 75% in each case.

In the case of `CN(Cc1ccccc1Cl)[C@@H]1C[C@@H]2CN(C(=O)n3ccc(C(N)=O)n3)C[C@@H]2C1` [Example 206], the inhibition at 1 µM on FAAH [1] and on MAGL [2] was above 75% throughout.

Take `O=C(O)c1ccn(C(=O)N2CCN(Cc3cccc(Oc4ccccc4)c3)CC2)n1` [Example 2, 1-(4-(3-phenoxybenzyl)piperazine-1-carbonyl)-1H-pyrazole-3-carboxylic Acid]: the inhibition at 1 µM on FAAH [1] is 25 to 50%; at MAGL [2], above 75%.

As for `CN(Cc1ccccc1Cl)[C@H]1C[C@@H]2CN(C(=O)n3ccc(C(=O)O)n3)C[C@@H]2C1` [Example 184, 1-(trans-5-((2-chlorobenzyl) (methyl)amino)octa-hydrocyclopenta[c]pyrrole-2-carbonyl)-1H-pyrazole-3-carboxylic], the inhibition at 1 µM was 25 to 50% on FAAH [1] and 0 to 25% on MAGL [2].

Regarding `O=C(O)c1ccn(C(=O)N2CCN(Cc3cccc(Oc4ccnnc4)c3)CC2)n1` [Example 177, 1-(4-(3-(pyridazin-4-yloxy)benzyl)pipera-zine-1-carbonyl)-1H-pyrazole-3-carboxylic acid], the results for the inhibition at 1 µM at FAAH [3] and on MAGL [4] were 0 to 25% and 25 to 50%, respectively.
